# Literature values, collected in patent US12622903B2, “Drug products for intranasal administration and uses thereof” (Summit Biosciences Inc., priority 2020, dated 2026).
# Test system: opioid overdose
compound,measurement,setting,value
"C=CCN1CC[C@]23c4c5ccc(O)c4O[C@H]2C(=O)CC[C@@]3(O)[C@H]1C5 [naloxone, 17-allyl-4,5a-epoxy-3,14-dihydroxymorphinan-6-one]",participants reporting serious adverse effects,DOPE Project participants,< 1%
same,overdose events reported reversed,"of 399 overdose events where naloxone was used, participant reports",89%
